Measured values as given in patent US20250130239A1, “PROTEIN DEGRADER” (University of Dundee, priority 2021, published 2025).
pEC50: −log10 of the molar value. Read-outs that look alike come from different tables or passages of the source.

Columns and labels:
wild-type Brd4^BD2 = wild-type Brd4^BD2 (Homo sapiens, UniProt O60885); conditions: cited from earlier work
Brd2, Brd3 and Brd4 = assay: First generation screen at 1 μM, 6 h: BET protein levels (western blot); assay type: cell-based, human
Protocol: Western Blotting. All cells were harvested on ice with RIPA lysis, and extraction buffer (ThermoFisher Scientific, 89901) supplemented with protease inhibitor cocktail (Merck, 11697498001) and Benzonase® Nuclease (Sigma, E1014) before being store at −20° C. prior to use. Total protein quantity was determined using the BCA protein assay (#23225, Pierce, Rockford, Illinois). Protein concentration was determined using the BCA assay (ThermoFisher Scientific, 23225). Samples were then prepared and loaded onto NuPAGE™ 4-12% Bis-Tris Midi gels (ThermoFisher Scientific, WG1403A), followed by the transfer of the proteins onto nitrocellulose membranes (EMD Millipore). […] All western blots were analysed for band intensities using Image Lab from Bio-Rad (LI-COR, Biosciences). The data extracted from these blots were then plotted and analysed using Prism (v. 8.2.0, GraphPad).
With this initial library in hand, we set out to evaluate the activity and selectivity of our I-BET-based B&H-PROTACs by treating our heterozygous BromoTag-Brd2 HEK293 cells with 1 μM of compounds 15-17 or 1 μM of control compounds MZP-15 (14), MZ1 (1) and cis-MZ1 for 6 h, which is sufficient time to achieve effective MZ1-induced BET protein degradation (FIG. 4A). Cells were harvested, and the subsequent lysate was analysed via western blot using antibodies against BET proteins; Brd2, Brd3 and Brd4 (FIG. 4A).

[1] = test system: BRD2 in Bromotag-BRD2 CRISPR knock-in HEK293 cells; assay: TMT labeling mass spectrometry proteomics, tagged target; assay type: cell-based, human; conditions: 1 μM, 2 h; >6,621 proteins quantified
Protocol: (§1) Sample processing, TMT labelling and fractionation. CRISPR modified BromoTag-Brd2 HEK293 cells were seeded 5×10^6 cells on a […] 24 h before treatment. Cells were treated with either DMSO, 1 μM AGB1 or 1 μM cis-AGB1. 2 h post-treatment, the cells were washed twice with PBS. Cells were lysed in 150 μL of 100 mM TEAB, 5% (w/v) SDS. The lysate was sonicated for 10 s and then centrifuged at 15,000 g for 5 min with the supernatant collected post-centrifugation. Samples were then quantified using a micro-BCA protein assay kit (Thermo Fisher Scientific); 300 μg of each sample were then reduced, alkylated and then digested using Strap mini protocol (Protifi) protocol as described by the manufacturer (protifi) with some modification. Samples were double digested with trypsin (1:40) first overnight then for another 6 hrs with the same ratio (1:40) in 50 mM TEAB buffer. Peptides were quantified using a quantitative fluorometric peptide assay (Thermo Fisher Scientific). The samples (90 μg each) were labelled with a TMT 10-plex Isobaric Label Reagent set (Thermo Fisher Scientific) as per the manufacturer's instructions. After labelling, samples were checked for labelling efficiency, then mixed, desalted, and dried in a speed-vac at 30° C. Samples were re-dissolved in 200 μl ammonium formate (10 mM, pH 9.5) and peptides were fractionated using High pH RP Chromatography. […]

[2] = mice, values obtained from ref., cited from earlier work
MV-4-11 cells = assay: CellTiter-Glo cell viability assay, MV-4-11; assay type: cell-based, human; conditions: 24 h
Protocol: Cell Viability Assay. MV-4-11 cells were plated at a density of 2×10^4 cell per well of a 96 well white-bottom plate, and left to grow overnight in 50 μl of IMDM (Invitrogen, arlsebad, CA, USA) supplemented with 10% (v/v) Fetal bovine serum (FBS) (Thermo Fisher, Waltham, MA, USA) and 1% (v/v) penicillin/streptomycin (pen/strep) (#15140122, Thermo Fisher, Waltham, MA, USA) at 37° C., 5% CO2, and 95% humidity. […] These cells were then left to incubate at 37° C., 5% CO2, and 95% humidity for one day prior to undergoing spectrophotometric analysis. 22RV1 cells were plated at a density of 2×10^4 cell per well of a 96 well white-bottom plate, and left to grow overnight in 100 μL of RPMI-1640 (Invitrogen, Carlsebad, CA, USA) supplemented with 10% (v/v) fetal bovine serum (FBS) (Thermo Fisher, Waltham, MA, USA) and 1% (v/v) penicillin/streptomycin (pen/strep) (#15140122, Thermo Fisher, Waltham, MA, USA) at 37° C., 5% CO2, and 95% humidity. […] Plates were subjected to 2 mins on an orbital shaker to encourage lysis and left for a further 5 mins to reach peak luminescence. Luminescence was then recorded on a BMG Labtech PHERAstar luminescence plate reader with recommended settings. Data extracted from this analysis was analysed with Graphpad Prism (v. 8.2.0, GraphPad) and normalized to the DMSO vehicle control. […]

[3] = test system: BRD3, BRD4 or any other endogenous protein; assay: TMT labeling mass spectrometry proteomics, off-targets; assay type: cell-based, human; conditions: 1 μM, 2 h; >6,621 proteins quantified
Protocol: as §1

For `CC[C@@H](C(=O)OC)[C@@H]1N=C(c2ccc(Cl)cc2)c2c(sc(C)c2C)-n2c(C)nnc21` [ET-JQ1-OMe], the “binding to the wild-type domain” value (wild-type Brd4^BD2) is listed as “undetectable binding”.
With `COc1ccc2c(c1)C(c1ccc(Cl)cc1)=NC(CC(=O)NCCOCCOCCOCC(=O)N[C@H](C(=O)N1C[C@H](O)C[C@H]1C(=O)NCc1ccc(-c3scnc3C)cc1)C(C)(C)C)c1nnc(C)n1-2` (stereo partly drawn) [MZP-15 (14), (2S,4R)-1-((2S)-2-(tert-butyl)-17-(6-(4-chlorophenyl)-8-methoxy-1-methyl-4H-benzo[fj][1,2,4]triazolo[4,3-a][1,4]diazepin-4-yl)-4,16-dioxo-6,9,12-trioxa-3,15-diazaheptadecanoyl)-4-hydroxy-N-(4-(4-methylthiazol-5-yl)benzyl)pyrrolidine-2-carboxamide] the “activity across all three BET family members relative to 1” value (Brd2, Brd3 and Brd4) was “significant lower activity”.
In the case of `CC[C@@H](C(=O)OCCOCCOCCOCC(=O)N[C@H](C(=O)N1C[C@@H](O)C[C@H]1C(=O)NCc1ccc(-c2scnc2C)cc1)C(C)(C)C)[C@@H]1N=C(c2ccc(Cl)cc2)c2c(sc(C)c2C)-n2c(C)nnc21` [cis-AGB1, (S)-13-((2S,4S)-4-hydroxy-2-((4-(4-methylthiazol-5-yl)benzyl)carbamoyl)pyrrolidine-1-carbonyl)-14,14-dimethyl-11-oxo-3,6,9-trioxa-12-azapentadecyl (R)-2-((S)-4-(4-chlorophenyl)-2,3,9-trimethyl-6H-thieno[3,2-f][1,2,4]triazolo[4,3-a][1,4]diazepin-6-yl)butanoate], the “BRD2 protein abundance (proteomics)” value [1] was “No significant changes”.
In the case of `Cc1ncsc1-c1ccc(CNC(=O)[C@@H]2C[C@@H](O)CN2C(=O)[C@@H](NC(=O)COCCOCCOCCNC(=O)C[C@@H]2N=C(c3ccc(Cl)cc3)c3c(sc(C)c3C)-n3c(C)nnc32)C(C)(C)C)cc1` [MZ1 (1)], the “T1/2” value ([2]; IV (5 mg/kg), 5 mg/kg) is listed as 1.04 h, the “AUCinf” value ([2]; IV (5 mg/kg)) is listed as 4.51 µM·h and the “CL” value ([2]; IV (5 mg/kg)) is listed as 19.7 mL/min/kg. The “MRTinf” value ([2]; IV (5 mg/kg)) was 0.340 h, the “Vss” value ([2]; IV (5 mg/kg)) was 0.38 L/kg and the “T1/2” value ([2]; IV (5 mg/kg), listed as 1, 5 mg/kg) was 1.05 h. The “AUCinf” value ([2]; SC (5 mg/kg)) was 3.76 µM·h, the “F (%)” value ([2]; SC (5 mg/kg)) was 83% and the “T1/2” value ([2]; SC (5 mg/kg)) was 2.95 h. The pEC50 (MV-4-11 cells) was ~7.70.
For “(S)-13-((2S,4R)-4-hydroxy-2-((4-(4-methylthiazol-5-yl)benzyl)carbamoyl)pyrrolidine-1-carbonyl)-14,14-dimethyl-11-oxo-3,6,9-trioxa-12-azapentadecyl (R)-2-((S)-4-(4-chlorophenyl)-2,3,9-trimethyl-6H-thieno[3,2-f][1,2,4]triazolo[4,3-a][1,4]diazepin-6-yl)butanoate [AGB1 (46)]”, the “BRD2 protein abundance (proteomics)” value [1] was “most significantly degraded” and the “depletion of BRD3, BRD4 or any other endogenous protein (proteomics)” value [3] was “no detectable depletion”.
